In PMC4911353, “Pharmacologic Inhibition of Host Phosphodiesterase-4 Improves Isoniazid-Mediated Clearance of Mycobacterium tuberculosis” (Frontiers in Immunology, 2016):

How the values were obtained:
[1] = test system: Mycobacterium tuberculosis CDC1551; format: in vivo; conditions: B6D2F1 mice, 50 mg/kg daily
lung granulomas = test: Histology and morphometric measurement of lung granulomas in Mtb-infected mice; format: in vivo
Procedure: Formalin-fixed lung tissues of Mtb-infected mice were paraffin-embedded, cut into […] sections, and stained with hematoxylin and eosin (H&E) or acid fast staining by Ziehl–Neelsen (ZN) method to visualize host cells and Mtb, respectively (IDEXX-RADIL Laboratories Inc., MO, USA) as described in Ref. ([11]). Stained sections were photographed in a Nikon Microphot-FX photomicrographic system and analyzed with NIS-Elements F3.0 software (Nikon Instruments Inc., NY, USA). Lung granuloma size was morphometrically measured using PathScan Enabler IV scanner (Meyer Instruments, Houston, TX, USA) and SigmaScan Pro software (Systat Software, Inc., CA, USA). Histopathologic analysis and morphometry were performed by an experienced pathologist blinded to the sample identity.

Mtb = conditions: mouse pulmonary TB model; cited from earlier work

| SMILES | Change in lung CFUs from 84 to 112 days postinfection [1] | Lesion area (granuloma size) versus untreated mice (lung granulomas; 28 days postinfection) | Granuloma size versus untreated group (lung granulomas; 112 days postinfection) | Impact on antibiotic-mediated bacillary clearance (Mtb) |
| --- | --- | --- | --- | --- |
| NNC(=O)c1ccncc1 [INH, isoniazid] | no significant decline | significant differences | significant reduction |  |
| COc1ccc([C@]2(C#N)CC[C@@H](C(=O)O)CC2)cc1OC1CCCC1 [cilomilast] |  |  |  | no impact |
| COc1ccc(C2CNC(=O)C2)cc1OC1CCCC1 (centres unmarked) [rolipram] |  |  |  | no impact |
